This is an account of results in US20200277251A1, “NOVEL ANTIBACTERIAL COMPOUNDS AND METHODS OF MAKING AND USING SAME” (BROWN UNIVERSITY, priority 2017, published 2020).

Usually MIC stands for the lowest concentration that inhibits growth of the organism.

Test [1] concerns Bacillus subtilis. The test can be described thus: Resazurin microtiter MIC assay, activity against Bacillus subtilis. The format is cell-based. The procedure: Bacillus subtilis ATCC 11775 was plated on agar from a 20% glycerol stock solution stored at −80° C. Inoculated plates were then incubated at 37° C. under aerobic conditions for 16 hours. Single cultures were transferred to Nutrient Broth (NB) and cultured for 16 hours under the same conditions. […] Second passage cultures were standardized to O.D.−600 nm=1.0. The resazurin microtiter assay procedure described by Palomino and coworkers is used for assessing antimicrobial activity (Palomino, 2002, Antimicrob. Agents Chemother. 46:2720-2722). The assay is performed in LB broth. Resazurin sodium salt powder is prepared in distilled water and filter sterilized at […] (w/v) for MIC assays and at 0.01%8.55). (w/v) for single concentration assays. Compounds are first screened in MIC assays to assess whether growth inhibition is dependent on inhibitor concentration. The plates are incubated for 30 min under aerobic conditions. Growth controls containing no inhibitory compound, sterility controls without inoculation, and controls containing a known antibiotic, chloramphenicol, are also included. The innoculum was prepared from second passage cultures in Nutrient Broth (NB) and standardized to O.D.−600 nm=1.0 and the wells inoculated with a 1:20 dilution. Serial two-fold dilutions of each compound in 100 μL of medium are prepared directly in 96 well plates at concentrations ranging from 250 μM to 7 μM. After incubation 30 μL of resazurin solution is added to each well and incubated for 30 min. A change in color from blue to pink indicates reduction of resazurin, and therefore bacterial growth. Minimum inhibitory concentration (MIC) was determined as the lowest drug concentration that prevented the color change from blue to pink. Inhibition was quantified by observation of color change. Further studies were carried out at a single inhibitor concentration of 250 μM. The plates were incubated for 4 h under aerobic conditions with the same controls. After incubation 30 μL of resazurin solution was added to each well and incubated for 60 min. Inhibition was quantified by fluorescence readings from plate reader SAFIRE, Firmware: V 2.20 08/02 Safire. Excitation wavelength set to 560 nm, emission wavelength set to 590 nm. Well containing dye and non-inoculated cells was used as gain set. Plates are held at 37° C. and fluorescence measurements are taken at 0, 5, 10, 20, 30, and 60 min after addition of dye. Lower fluorescence values correlate to greater degrees of inhibition. Compounds are tested […] for their capacity to inhibit B. subtilis growth. […] Briefly, second-passage bacteria are incubated with inhibitor in a 96-well plate for four hours, then resazurin dye is added and color/fluorescence change is observed. […] Resorufin is also fluorescent and can be measured by a plate-reader.
For orientation: Resazurin is reduced to fluorescent resorufin, in cell work by metabolically active cells.

The subject of test [2] is Streptococcus pneumoniae. The test can be described thus: Resazurin microtiter MIC assay, activity against Streptococcus pneumoniae. The class given is cell-based. The procedure:
The resazurin microtiter assay procedure described by Palomino and coworkers is used for assessing antimicrobial activity (Palomino, 2002, Antimicrob. Agents Chemother. 46:2720-2722). The assay is performed in LB broth. Resazurin sodium salt powder is prepared in distilled water and filter sterilized at […] (w/v) for MIC assays and at 0.01%8.55). (w/v) for single concentration assays. Compounds are first screened in MIC assays to assess whether growth inhibition is dependent on inhibitor concentration. The plates are incubated for 30 min under aerobic conditions. Growth controls containing no inhibitory compound, sterility controls without inoculation, and controls containing a known antibiotic, chloramphenicol, are also included. The innoculum was prepared from second passage cultures in Nutrient Broth (NB) and standardized to O.D.−600 nm=1.0 and the wells inoculated with a 1:20 dilution. Serial two-fold dilutions of each compound in 100 μL of medium are prepared directly in 96 well plates at concentrations ranging from 250 μM to 7 μM. After incubation 30 μL of resazurin solution is added to each well and incubated for 30 min. A change in color from blue to pink indicates reduction of resazurin, and therefore bacterial growth. Minimum inhibitory concentration (MIC) was determined as the lowest drug concentration that prevented the color change from blue to pink. Inhibition was quantified by observation of color change. Further studies were carried out at a single inhibitor concentration of 250 μM. The plates were incubated for 4 h under aerobic conditions with the same controls. After incubation 30 μL of resazurin solution was added to each well and incubated for 60 min. Inhibition was quantified by fluorescence readings from plate reader SAFIRE, Firmware: V 2.20 08/02 Safire. Excitation wavelength set to 560 nm, emission wavelength set to 590 nm. Well containing dye and non-inoculated cells was used as gain set. Plates are held at 37° C. and fluorescence measurements are taken at 0, 5, 10, 20, 30, and 60 min after addition of dye. Lower fluorescence values correlate to greater degrees of inhibition.

Test [3] has as its system E. coli. To be noted: cited from earlier work.

In brackets after ≈: the same amount, converted by molar mass.

The compound `CCCCNC(=O)C(C1CCCCC1)N(C(=O)c1ccccc1OC)C1CCCCC1` (stereo not drawn) [qgka] returned an MIC in test [1] of 50 µM (≈ 21.4 µg/mL).

`CCCCNC(=O)C(C1CCCCC1)N(C(=O)c1ccccc1C)c1ccccc1` (stereo not drawn) [wgqa]: the minimum inhibitory concentration (MIC) amounted to 50 µM in test [2] (60 uM) and 20.3 µg/mL in test [2] (same MIC in mass units).

As to `C#CCN(C(=O)c1ccccc1C(F)(F)F)C(C(=O)NCCCC)C1CCCCC1` (stereo not drawn) [vgba], the MIC in test [2] (60 uM) was found to be 50 µM; in test [2] (same MIC in mass units), 21.1 µg/mL.

On to `CCCCNC(=O)C(C1CCCCC1)N(C(=O)c1ccccc1C)C1CCCCC1` (stereo not drawn) [wgka], for which 50 µM (≈ 20.6 µg/mL) was the least that counted as inhibitory in test [1] (MIC).

On to `O=C(NC1CCCCC1)C(C1CCCCC1)N(C(=O)c1ccccc1C(F)(F)F)C1CCCCC1` (stereo not drawn) [vgkc], for which the MIC in test [2] (60 uM) was 5 µM; in test [2] (same MIC in mass units), 2.46 µg/mL; in test [1], 50 µM (≈ 24.6 µg/mL).

Compound `CCCCNC(=O)C(C1CCCCC1)N(C(=O)c1ccccc1C(F)(F)F)C1CCCCC1` (stereo not drawn) [vgka] came in with an MIC in test [1] of 50 µM (≈ 23.3 µg/mL).

In the case of `CCCCNC(=O)C(C1CCCCC1)N(C(=O)c1ccccc1OC(C)=O)C1CCCCC1` (stereo not drawn) [ygka], the MIC in test [2] (60 uM) turned out to be 5 µM; in test [2] (same MIC in mass units), 2.33 µg/mL.

With `CCCCNC(=O)C(C1CCCCC1)N(C(=O)c1ccccc1SC)c1ccccc1` (stereo not drawn) [sgqa], the MIC in test [2] (60 uM) turned out to be 50 µM; in test [2] (same MIC in mass units), 21.2 µg/mL.

For the compound `CC1=N[C@@H]2[C@@H](O)[C@H](O)[C@@H](CO)O[C@@H]2S1` [NAG-thiazoline], the “effect on the viability of E. coli” value in test [3] is “no effect”.
